Experimental data reported in PMC6271976, “Inhibition of Human Cytochrome P450 Enzymes by Bacopa monnieri Standardized Extract and Constituents” (Molecules, 2014).

Columns and labels:
[1] = molecular target: CYP2C9 (Homo sapiens, UniProt P11712); test: Luminescent P450-Glo recombinant human CYP2C9 inhibition assay
Description: (§1) The inhibitory effects of B. monnieri standardized extract and the constituents bacoside A, bacoside A3, bacopaside II, bacopaside X, bacopasaponin C and bacopaside I on human cytochrome P450 enzyme were examined using an in vitro luminescent assay. The P450-Glo™ substrates are converted by CYP enzymes to a luciferin product that reacts with a Luciferin Detection Reagent to produce light. The amount of light produced is directly proportional to the CYP enzyme activity. The net signals from untreated (added with buffer or solvent) CYP reactions represent total CYP activity (without any inhibition = 100%). […] The test compounds that inhibit CYP enzymes caused a reduction in CYP activity and therefore generated less light/signal.
(§2) The assay was carried out using P450-Glo™ Screening System (Cat.# V9770, V9790, V9880, V9890, V9910) from Promega (Madison, WI, USA). The system includes a membrane preparation containing recombinant human cytochrome P450 (CYP) enzyme, negative control membranes, a luminogenic substrate appropriate for the CYP enzyme, an NADPH regeneration system (containing nicotinamide adenine dinucleotide phosphate (NADP^+), glucose-6-phosphate, magnesium chloride (MgCl2) and glucose-6-phosphate dehydrogenase functioning to initiate and sustain the CYP450 reaction by maintaining a non-limiting NADPH system), reaction buffer, Luciferin Detection Reagent and Luciferin-Free Water. The membranes were prepared from baculovirus-infected insect cells and contained recombinant human CYP enzyme and P450 reductase (and cytochrome b5 for CYP2C9, 2C19 and 3A4). The negative control membranes were devoid of CYP activity. The dried powder of B. monnieri standardized methanolic extract containing 50% bacosides (batch No.: C92352/H) was purchased from Sami Labs Ltd. (Karnataka, India). Bacoside A, bacoside A3, bacopaside II, bacopaside X, bacopasaponin C and bacopaside I were purchased from Chromadex Inc. (Irvine, CA, USA).
(§3) The enzyme assay was performed in 96-well white bottom flat plates (Nunc, Roskilde, Denmark). The concentration of B. monnieri extract was 0.01–1000 µg/mL, and the positive controls and compounds (bacoside A, bacoside A3, bacopaside II, bacopaside X, bacopasaponin C and bacopaside I) were 0.01–100 µM. The concentration of the extracts, compounds and positive controls were prepared at 4× the original concentration. All extracts and compounds were dissolved in dimethyl sulfoxide (DMSO). The organic solvent was kept below 0.25% (v/v) in the incubation mixture. First, 12.5 μL of the 4× test compounds or positive controls (appropriate for each enzyme) were added to the “treated” wells. For the “untreated” (the values from these wells represent total CYP activity) and “minus-P450 control” wells (the values from these wells represent the CYP-independent background luminescence of the assay), 12.5 μL of vehicle (1% DMSO) was added. Then, 12.5 μL of the 4× control reaction mixture (containing membrane preparations devoid of CYP enzymes, the appropriate luminogenic substrate, and potassium phosphate buffer) were added to the minus-P450 control wells, and 12.5 μL of the 4× reaction mixture (containing human CYP membrane preparations, the appropriate luminogenic substrate, and potassium phosphate buffer) were added to all other wells. The plate was pre-incubated at room temperature for 10 min, and then 2× NADPH regeneration system was added to initiate the reaction. After incubation at room temperature for 30 min (45 min for CYP2D6), 50 μL of the reconstituted Luciferin Detection Reagent was added to stop the reaction and generate the luminescent signal. Before reading, the plate was incubated at room temperature for 20 min to stabilize the luminescent signal. The luminescence in all of the samples was measured using an Infinite F200 plate reader (Tecan, Männedorf, Switzerland).

[2] = molecular target: T1, CYP1A2 (Homo sapiens, UniProt P05177); test: Luminescent P450-Glo recombinant human CYP1A2 inhibition assay
T1 sequence (P05177 2-516 limits assumed): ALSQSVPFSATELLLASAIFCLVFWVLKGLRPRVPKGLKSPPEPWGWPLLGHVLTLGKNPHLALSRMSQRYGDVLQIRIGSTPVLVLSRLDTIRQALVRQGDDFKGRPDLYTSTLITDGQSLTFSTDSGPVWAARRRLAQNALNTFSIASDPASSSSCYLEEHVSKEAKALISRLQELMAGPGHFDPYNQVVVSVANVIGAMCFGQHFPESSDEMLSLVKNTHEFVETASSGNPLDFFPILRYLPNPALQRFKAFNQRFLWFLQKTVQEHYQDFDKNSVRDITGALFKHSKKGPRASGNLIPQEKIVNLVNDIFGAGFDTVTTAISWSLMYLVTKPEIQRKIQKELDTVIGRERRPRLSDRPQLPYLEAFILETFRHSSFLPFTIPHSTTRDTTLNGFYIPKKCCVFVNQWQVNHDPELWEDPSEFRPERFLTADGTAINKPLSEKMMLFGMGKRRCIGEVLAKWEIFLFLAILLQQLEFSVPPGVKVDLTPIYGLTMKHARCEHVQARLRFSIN
Description: as §1, §2, §3

[3] = molecular target: CYP3A4 (Homo sapiens, UniProt P08684); test: Luminescent P450-Glo recombinant human CYP3A4 inhibition assay
Description: as §1, §2, §3

[4] = molecular target: CYP2D6 (Homo sapiens, UniProt P10635); test: Luminescent P450-Glo recombinant human CYP2D6 inhibition assay
Description: as §1, §2, §3

[5] = molecular target: CYP2C19 (Homo sapiens, UniProt P33261); test: Luminescent P450-Glo recombinant human CYP2C19 inhibition assay
Description: as §1, §2, §3

Chain of CYP2C19 (P33261 whole entry): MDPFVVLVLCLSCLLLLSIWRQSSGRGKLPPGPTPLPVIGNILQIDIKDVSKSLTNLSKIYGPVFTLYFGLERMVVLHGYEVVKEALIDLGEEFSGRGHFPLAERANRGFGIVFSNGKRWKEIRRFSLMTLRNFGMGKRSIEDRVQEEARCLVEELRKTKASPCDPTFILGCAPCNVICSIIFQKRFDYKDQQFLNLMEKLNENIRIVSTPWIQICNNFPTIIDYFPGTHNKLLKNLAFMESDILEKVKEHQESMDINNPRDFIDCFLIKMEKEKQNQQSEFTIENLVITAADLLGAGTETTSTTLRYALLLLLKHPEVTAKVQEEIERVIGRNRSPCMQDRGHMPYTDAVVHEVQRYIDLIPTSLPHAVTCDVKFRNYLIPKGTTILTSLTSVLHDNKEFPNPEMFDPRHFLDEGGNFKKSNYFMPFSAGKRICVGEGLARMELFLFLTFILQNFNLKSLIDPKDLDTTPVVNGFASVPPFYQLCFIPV
Chain of CYP2D6 (P10635 whole entry): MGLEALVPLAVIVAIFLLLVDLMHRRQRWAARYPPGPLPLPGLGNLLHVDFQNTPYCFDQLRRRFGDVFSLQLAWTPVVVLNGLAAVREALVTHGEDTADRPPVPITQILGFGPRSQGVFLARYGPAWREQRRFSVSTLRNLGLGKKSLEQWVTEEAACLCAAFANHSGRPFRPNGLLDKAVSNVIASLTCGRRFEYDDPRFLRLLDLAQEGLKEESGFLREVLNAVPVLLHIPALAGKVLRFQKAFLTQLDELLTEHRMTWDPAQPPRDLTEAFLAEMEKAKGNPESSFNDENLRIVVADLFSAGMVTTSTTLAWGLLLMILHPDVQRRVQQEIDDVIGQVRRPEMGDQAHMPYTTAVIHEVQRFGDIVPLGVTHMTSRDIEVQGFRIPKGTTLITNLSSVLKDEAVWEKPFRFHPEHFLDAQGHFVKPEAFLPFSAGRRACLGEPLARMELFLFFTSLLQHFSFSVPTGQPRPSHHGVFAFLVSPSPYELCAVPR
Chain of CYP3A4 (P08684 2-503): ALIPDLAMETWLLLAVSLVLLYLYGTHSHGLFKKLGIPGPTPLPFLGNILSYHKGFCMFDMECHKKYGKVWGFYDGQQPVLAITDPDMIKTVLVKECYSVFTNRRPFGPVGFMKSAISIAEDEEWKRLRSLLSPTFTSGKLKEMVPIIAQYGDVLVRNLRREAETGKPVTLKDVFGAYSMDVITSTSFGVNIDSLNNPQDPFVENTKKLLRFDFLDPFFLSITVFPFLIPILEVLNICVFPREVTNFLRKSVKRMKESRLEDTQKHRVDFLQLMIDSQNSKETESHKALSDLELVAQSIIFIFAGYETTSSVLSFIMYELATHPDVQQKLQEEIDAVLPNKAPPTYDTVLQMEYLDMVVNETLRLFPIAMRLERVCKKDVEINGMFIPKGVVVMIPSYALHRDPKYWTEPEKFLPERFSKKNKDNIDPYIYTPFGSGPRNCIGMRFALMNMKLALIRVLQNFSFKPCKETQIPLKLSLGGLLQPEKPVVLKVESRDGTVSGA
Chain of CYP2C9 (P11712 whole entry): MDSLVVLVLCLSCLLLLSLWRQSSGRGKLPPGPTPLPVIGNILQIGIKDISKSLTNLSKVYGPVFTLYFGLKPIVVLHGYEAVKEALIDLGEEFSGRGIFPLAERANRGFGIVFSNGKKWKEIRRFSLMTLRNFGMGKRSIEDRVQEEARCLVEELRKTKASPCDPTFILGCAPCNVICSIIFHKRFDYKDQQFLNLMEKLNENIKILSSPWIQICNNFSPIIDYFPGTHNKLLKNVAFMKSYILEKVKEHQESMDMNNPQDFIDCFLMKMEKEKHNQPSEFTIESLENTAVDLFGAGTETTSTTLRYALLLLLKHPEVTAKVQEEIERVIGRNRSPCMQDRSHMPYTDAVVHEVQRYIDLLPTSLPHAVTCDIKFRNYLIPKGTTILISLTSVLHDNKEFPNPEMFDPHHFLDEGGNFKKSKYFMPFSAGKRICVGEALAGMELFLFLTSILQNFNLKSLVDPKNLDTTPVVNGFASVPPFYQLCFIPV

| Compound | IC50 [1] [µM] | IC50 [2] [µM] | IC50 [3] [µM] | IC50 [4] [µM] | IC50 [5] [µM] | Inhibition of CYP2C9 in words ([1]; concentrations up to 100 µM) | Inhibition of CYP1A2 in words ([2]; concentrations up to 100 µM) | Inhibition of CYP3A4 in words ([3]; concentrations up to 100 µM) | Inhibition of CYP2D6 in words ([4]; concentrations up to 100 µM) | Inhibition of CYP2C19 in words ([5]; concentrations up to 100 µM) |
| --- | --- | --- | --- | --- | --- | --- | --- | --- | --- | --- |
| CC(C)=CC1COC23CC4(CO2)C(CCC2C5(C)CCC(OC6OCC(O)C(OC7OC(COS(=O)(=O)O)C(O)C(O)C7O)C6OC6OC(CO)C(O)C6O)C(C)(C)C5CCC24C)C3C1(C)O (stereo not drawn) [bacopaside I] | > 100 | > 100 | > 100 | > 100 | > 100 |  |  |  |  |  |
| CC(C)=C[C@H]1C[C@](C)(O)[C@@H]2[C@H]3CC[C@@H]4[C@@]5(C)CC[C@H](O[C@@H]6O[C@H](CO)[C@@H](O)[C@H](O[C@@H]7O[C@H](CO)[C@@H](O)[C@H](O)[C@H]7O)[C@H]6O[C@@H]6O[C@@H](CO)[C@H](O)[C@H]6O)C(C)(C)[C@@H]5CC[C@@]4(C)[C@@]34CO[C@@]2(C4)O1 [bacoside A3] | > 100 | > 100 | > 100 | > 100 | > 100 | negligible inhibition | negligible inhibition | negligible inhibition | negligible inhibition | negligible inhibition |

Now from value to compound, other results behind:

| IC50 [1] [µM] | IC50 [2] [µM] | IC50 [3] [µM] | IC50 [4] [µM] | IC50 [5] [µM] | Compound | Inhibition of CYP2C9 in words ([1]; concentrations up to 100 µM) | Inhibition of CYP1A2 in words ([2]; concentrations up to 100 µM) | Inhibition of CYP3A4 in words ([3]; concentrations up to 100 µM) | Inhibition of CYP2D6 in words ([4]; concentrations up to 100 µM) | Inhibition of CYP2C19 in words ([5]; concentrations up to 100 µM) |
| --- | --- | --- | --- | --- | --- | --- | --- | --- | --- | --- |
| > 100 | > 100 | > 100 | > 100 | > 100 | CC(C)=C[C@H]1C[C@](C)(O)[C@@H]2[C@H]3CC[C@@H]4[C@@]5(C)CC[C@H](O[C@@H]6OC[C@H](O)[C@H](O[C@@H]7O[C@H](CO)[C@@H](O)[C@H](O)[C@H]7O)[C@H]6O[C@@H]6O[C@@H](CO)[C@H](O)[C@H]6O)C(C)(C)[C@@H]5CC[C@@]4(C)[C@@]34CO[C@@]2(C4)O1 [bacopaside X] |  |  |  |  |  |
| > 100 | > 100 | > 100 | > 100 | > 100 | CC(C)=C[C@@H]1CO[C@]23C[C@]4(CO2)[C@H](CC[C@@H]2[C@@]5(C)CC[C@H](O[C@@H]6OC[C@H](O)[C@H](O[C@@H]7O[C@H](CO)[C@@H](O)[C@H](O)[C@H]7O)[C@H]6O[C@@H]6O[C@@H](CO)[C@H](O)[C@H]6O)C(C)(C)[C@@H]5CC[C@]24C)[C@H]3[C@@]1(C)O [bacopasaponin C] |  |  |  |  |  |
| > 100 | > 100 | > 100 | > 100 | > 100 | CC(C)=CC1COC23CC4(CO2)C(CCC2C5(C)CCC(OC6OC(CO)C(O)C(OC7OC(CO)C(O)C(O)C7O)C6OC6OC(CO)C(O)C6O)C(C)(C)C5CCC24C)C3C1(C)O (stereo not drawn) [bacopaside II] |  |  |  |  |  |
